Measurements reported in ChEMBL document CHEMBL1201862, “PubChem BioAssay data set” (2004).
Active and inactive are the calls of the source.

Key:
[1] = HEp-2 cell cytotoxicity, dose response, cytotoxicity control for RSV inhibitor project, HTS (AID 2410); assay type: functional; details: human respiratory syncytial virus
cells [2] = test: cells
[3] = molecular target: Voltage-dependent T-type calcium channel subunit alpha-1H (Homo sapiens, UniProt O95180); assay type: functional;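 further: channel activity triggered by adding a high calcium stimulation buffer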
Sequence of Voltage-dependent T-type calcium channel subunit alpha-1H (O95180 whole entry): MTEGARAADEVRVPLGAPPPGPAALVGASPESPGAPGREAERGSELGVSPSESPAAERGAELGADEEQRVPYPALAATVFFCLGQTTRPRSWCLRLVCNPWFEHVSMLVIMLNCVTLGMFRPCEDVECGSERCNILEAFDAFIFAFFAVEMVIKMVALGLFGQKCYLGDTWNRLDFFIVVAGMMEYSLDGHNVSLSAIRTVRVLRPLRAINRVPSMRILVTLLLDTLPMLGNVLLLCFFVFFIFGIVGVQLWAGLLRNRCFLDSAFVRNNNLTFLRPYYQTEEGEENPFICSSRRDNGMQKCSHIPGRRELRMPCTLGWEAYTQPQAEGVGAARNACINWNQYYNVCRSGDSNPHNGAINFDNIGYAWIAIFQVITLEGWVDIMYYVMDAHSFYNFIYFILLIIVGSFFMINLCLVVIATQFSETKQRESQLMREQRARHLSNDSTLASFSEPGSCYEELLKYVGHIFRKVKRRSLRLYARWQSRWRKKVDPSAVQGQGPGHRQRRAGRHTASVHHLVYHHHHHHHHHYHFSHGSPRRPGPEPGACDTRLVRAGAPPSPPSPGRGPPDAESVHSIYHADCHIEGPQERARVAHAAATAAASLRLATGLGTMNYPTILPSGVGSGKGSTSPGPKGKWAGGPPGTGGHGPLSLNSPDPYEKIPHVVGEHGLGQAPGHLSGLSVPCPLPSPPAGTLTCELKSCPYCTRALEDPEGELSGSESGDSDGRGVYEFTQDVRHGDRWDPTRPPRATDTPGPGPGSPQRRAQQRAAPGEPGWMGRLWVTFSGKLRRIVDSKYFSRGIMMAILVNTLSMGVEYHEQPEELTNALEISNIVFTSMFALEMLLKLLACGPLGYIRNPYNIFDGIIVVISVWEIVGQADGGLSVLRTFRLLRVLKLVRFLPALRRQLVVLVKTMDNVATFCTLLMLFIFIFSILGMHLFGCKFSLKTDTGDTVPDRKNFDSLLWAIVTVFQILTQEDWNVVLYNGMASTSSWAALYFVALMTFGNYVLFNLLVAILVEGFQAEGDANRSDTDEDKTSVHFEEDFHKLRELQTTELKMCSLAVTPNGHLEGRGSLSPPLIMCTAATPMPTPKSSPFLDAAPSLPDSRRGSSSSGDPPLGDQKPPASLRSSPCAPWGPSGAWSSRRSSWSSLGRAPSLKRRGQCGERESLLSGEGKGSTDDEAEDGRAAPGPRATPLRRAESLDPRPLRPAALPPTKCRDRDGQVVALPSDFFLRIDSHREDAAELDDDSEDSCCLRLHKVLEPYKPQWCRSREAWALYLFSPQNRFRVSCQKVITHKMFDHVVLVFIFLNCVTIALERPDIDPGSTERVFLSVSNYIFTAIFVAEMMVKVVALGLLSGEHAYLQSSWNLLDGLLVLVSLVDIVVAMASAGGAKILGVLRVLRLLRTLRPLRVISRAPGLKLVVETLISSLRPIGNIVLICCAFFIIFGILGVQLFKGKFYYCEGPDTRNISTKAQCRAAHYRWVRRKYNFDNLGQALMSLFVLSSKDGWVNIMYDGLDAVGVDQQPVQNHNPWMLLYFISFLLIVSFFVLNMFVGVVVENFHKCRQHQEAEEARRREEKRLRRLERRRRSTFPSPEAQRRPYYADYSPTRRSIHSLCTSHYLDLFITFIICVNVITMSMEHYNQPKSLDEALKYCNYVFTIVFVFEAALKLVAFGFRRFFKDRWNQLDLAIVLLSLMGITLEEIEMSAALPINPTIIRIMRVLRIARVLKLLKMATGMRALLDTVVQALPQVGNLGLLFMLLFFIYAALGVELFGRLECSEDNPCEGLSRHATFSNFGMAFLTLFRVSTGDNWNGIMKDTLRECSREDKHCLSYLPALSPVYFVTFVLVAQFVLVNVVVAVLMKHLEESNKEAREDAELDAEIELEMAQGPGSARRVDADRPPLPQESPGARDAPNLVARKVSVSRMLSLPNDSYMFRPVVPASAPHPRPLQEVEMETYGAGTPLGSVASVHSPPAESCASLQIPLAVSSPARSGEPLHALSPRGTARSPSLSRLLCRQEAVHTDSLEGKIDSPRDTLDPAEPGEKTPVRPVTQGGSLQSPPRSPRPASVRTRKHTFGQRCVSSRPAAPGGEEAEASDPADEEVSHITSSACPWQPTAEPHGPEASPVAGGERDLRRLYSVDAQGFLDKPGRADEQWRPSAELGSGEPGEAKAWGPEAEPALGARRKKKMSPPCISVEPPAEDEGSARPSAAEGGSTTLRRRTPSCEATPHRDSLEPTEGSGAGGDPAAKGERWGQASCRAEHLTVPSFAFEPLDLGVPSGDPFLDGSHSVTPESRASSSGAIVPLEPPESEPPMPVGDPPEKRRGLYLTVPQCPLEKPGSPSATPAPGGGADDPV

[4] = molecular target: T1, Probable nicotinate-nucleotide adenylyltransferase (Staphylococcus aureus (strain N315), UniProt P65502); assay type: functional, Staphylococcus aureus subsp. aureus N315;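 on IC50 Mean: confirmatory dose-response retesting of NadD inhibitor hits first found in an ultra-high-throughput screen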
T1 sequence (P65502 whole entry): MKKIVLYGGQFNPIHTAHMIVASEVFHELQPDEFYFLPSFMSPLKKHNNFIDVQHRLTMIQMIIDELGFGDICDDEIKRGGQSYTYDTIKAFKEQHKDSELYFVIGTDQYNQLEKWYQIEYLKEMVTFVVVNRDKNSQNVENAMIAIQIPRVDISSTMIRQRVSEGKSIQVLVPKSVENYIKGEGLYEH

[5] = molecular target: T1, Probable nicotinate-nucleotide adenylyltransferase; assay type: functional, Staphylococcus aureus subsp. aureus N315; details: read-out: IC50_Mean
[6] = insulin promoter down-regulators in MIN6 cells, imaging, high-content screening, mouse beta cells (AID 1628); assay type: functional
[7] = cytotoxicity in MIN6 insulinoma cells, dose response, cytotoxicity control, cell-based, mouse insulinoma (AID 2122); assay type: functional;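 further: confirmatory high-throughput counterscreen run to flag cytotoxic compounds; mouse MIN-6 beta cells carrying an insulin promoter eGFP reporter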
Vero [8] = test: Vero cell cytotoxicity, cytotoxicity control for flavivirus capping enzyme inhibitors (AID 588742); assay type: functional; details: Chlorocebus sabaeus
HEK293 = test: cells; assay type: functional, cell-based; details: Homo sapiens
[9] = molecular target: T2, Nuclear receptor subfamily 0 group B member 1 (Homo sapiens, UniProt P51843); test: Luminescence-based cell-based high throughput dose response assay for inhibitors of the orphan nuclear receptor subfamily 0, group B, member 1 (DAX1; NR0B1). [Related pubchem assays (depositor defined):AID504766, AID504790]; assay type: functional
T2 sequence (P51843 whole entry): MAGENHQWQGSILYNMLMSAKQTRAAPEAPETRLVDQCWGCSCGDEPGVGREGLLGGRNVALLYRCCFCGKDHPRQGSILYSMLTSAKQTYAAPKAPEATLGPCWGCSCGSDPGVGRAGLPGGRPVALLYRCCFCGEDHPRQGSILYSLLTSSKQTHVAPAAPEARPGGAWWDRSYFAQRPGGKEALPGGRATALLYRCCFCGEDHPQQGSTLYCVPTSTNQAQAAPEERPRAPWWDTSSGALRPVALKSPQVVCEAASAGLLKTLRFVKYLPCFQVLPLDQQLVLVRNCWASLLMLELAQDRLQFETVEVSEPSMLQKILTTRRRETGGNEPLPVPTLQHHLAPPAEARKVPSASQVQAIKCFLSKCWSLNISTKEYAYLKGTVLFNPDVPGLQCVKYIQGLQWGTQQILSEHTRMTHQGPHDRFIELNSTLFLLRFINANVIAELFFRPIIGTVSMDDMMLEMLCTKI

[10] = cytotoxicity in HEK-293T cells, dose response, cytotoxicity control for TCR NF-kB inhibitor project, luminescence, T-cell screen hits (AID 489026); assay type: functional, cell-based;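 further: cells exposed to compound about 14 hours before the viability readout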
Estrogen receptor beta [11] = molecular target: T3, Estrogen receptor beta (Homo sapiens, UniProt Q92731);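 further: recombinant ER-beta bound to coactivator SRC1 peptide in presence of estradiol agonist; inhibitors block coactivator peptide binding and lower the FRET signal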
T3 sequence (Q92731 whole entry): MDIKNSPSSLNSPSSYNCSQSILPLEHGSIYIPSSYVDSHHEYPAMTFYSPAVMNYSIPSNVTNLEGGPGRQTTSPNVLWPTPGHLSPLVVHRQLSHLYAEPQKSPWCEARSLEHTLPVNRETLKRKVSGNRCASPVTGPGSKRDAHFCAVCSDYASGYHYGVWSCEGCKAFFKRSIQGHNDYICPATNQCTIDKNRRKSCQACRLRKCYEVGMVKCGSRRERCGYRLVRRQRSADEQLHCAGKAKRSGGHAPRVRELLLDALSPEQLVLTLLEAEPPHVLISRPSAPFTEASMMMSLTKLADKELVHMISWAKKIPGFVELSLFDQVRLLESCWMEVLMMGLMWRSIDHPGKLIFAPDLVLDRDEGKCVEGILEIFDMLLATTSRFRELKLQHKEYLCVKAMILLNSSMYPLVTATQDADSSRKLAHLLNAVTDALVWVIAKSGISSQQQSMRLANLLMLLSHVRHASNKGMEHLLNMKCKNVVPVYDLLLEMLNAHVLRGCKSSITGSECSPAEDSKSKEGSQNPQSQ

Estrogen receptor beta [12] = molecular target: T3, Estrogen receptor beta; test: ERβ–SRC-3 coactivator interaction inhibitors, confirmation, orthogonal assay, biochemical, ELISA, streptavidin-HRP readout (AID 1060)
Estrogen receptor = molecular target: T4, Estrogen receptor (Homo sapiens, UniProt P03372);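 further: potency for inhibiting coactivator peptide recruitment to the receptor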
T4 sequence (P03372 whole entry): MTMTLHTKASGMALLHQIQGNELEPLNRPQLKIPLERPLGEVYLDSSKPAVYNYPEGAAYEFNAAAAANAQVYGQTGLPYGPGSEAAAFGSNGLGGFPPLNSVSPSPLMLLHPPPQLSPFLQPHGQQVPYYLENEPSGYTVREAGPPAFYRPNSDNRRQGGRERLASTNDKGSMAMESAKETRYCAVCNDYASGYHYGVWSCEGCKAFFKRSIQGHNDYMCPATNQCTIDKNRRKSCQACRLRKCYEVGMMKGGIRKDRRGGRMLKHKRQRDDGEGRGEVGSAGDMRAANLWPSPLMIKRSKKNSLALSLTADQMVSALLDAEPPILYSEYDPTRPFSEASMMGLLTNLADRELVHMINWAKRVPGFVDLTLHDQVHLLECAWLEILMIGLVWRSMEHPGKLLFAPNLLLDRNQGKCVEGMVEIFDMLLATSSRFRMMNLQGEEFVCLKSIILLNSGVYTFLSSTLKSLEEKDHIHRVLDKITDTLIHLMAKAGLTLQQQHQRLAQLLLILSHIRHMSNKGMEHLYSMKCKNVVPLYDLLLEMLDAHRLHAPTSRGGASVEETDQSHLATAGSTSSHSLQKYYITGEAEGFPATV

Vero [13] = test: cells; assay type: functional, cell-based; details: Chlorocebus sabaeus
Vero [14] = test: cells; assay type: functional; details: Chlorocebus sabaeus
[15] = inhibitors of intracellular T. cruzi replication, confirmation, NIH3T3 host cells, beta-gal luminescence (AID 2044); assay type: functional, cell-based;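 further: intracellular parasites grown in NIH/3T3 mouse fibroblasts as host cells; luminescent beta-galactosidase reporter signal from transgenic T. cruzi replicating inside host cells; inhibitors lower the luminescence signal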
[16] = cytotoxicity toward NIH3T3 fibroblasts, dose response, counter-screen, cell-based, ATP luminescence, mouse fibroblasts (AID 2010); assay type: functional;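 further: cells exposed to compound for about 90 hours before reading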
[17] = molecular target: T5, Zinc finger protein mex-5 (Caenorhabditis elegans, UniProt Q9XUB2); test: MEX-5/TCR-2 RNA interaction inhibitors, dose response, biochemical, C. elegans, fluorescence polarization (AID 1960)
T5 sequence (Q9XUB2 whole entry): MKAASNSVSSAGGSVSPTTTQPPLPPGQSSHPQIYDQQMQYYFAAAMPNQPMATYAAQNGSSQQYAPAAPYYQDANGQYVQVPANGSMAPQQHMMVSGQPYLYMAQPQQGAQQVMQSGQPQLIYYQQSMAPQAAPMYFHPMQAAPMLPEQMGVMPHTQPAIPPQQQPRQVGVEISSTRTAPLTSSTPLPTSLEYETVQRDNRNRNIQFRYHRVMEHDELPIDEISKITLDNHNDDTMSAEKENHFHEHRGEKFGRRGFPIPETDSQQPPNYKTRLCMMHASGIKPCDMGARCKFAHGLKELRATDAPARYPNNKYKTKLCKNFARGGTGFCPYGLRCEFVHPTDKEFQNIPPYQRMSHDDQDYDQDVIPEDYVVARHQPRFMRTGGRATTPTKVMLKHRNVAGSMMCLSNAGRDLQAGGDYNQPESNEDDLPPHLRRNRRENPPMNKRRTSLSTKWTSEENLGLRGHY

[18] = molecular target: T6, RNA-binding protein pos-1 (Caenorhabditis elegans, UniProt G5EF15); test: inhibitors of POS-1/mex-3 RNA binding, dose response, biochemical, fluorescence polarization (AID 1964);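 further: purified POS-1 fused to maltose binding protein made in E. coli; potency of compounds blocking POS-1 binding to fluorescent RNA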
T6 sequence (G5EF15 whole entry): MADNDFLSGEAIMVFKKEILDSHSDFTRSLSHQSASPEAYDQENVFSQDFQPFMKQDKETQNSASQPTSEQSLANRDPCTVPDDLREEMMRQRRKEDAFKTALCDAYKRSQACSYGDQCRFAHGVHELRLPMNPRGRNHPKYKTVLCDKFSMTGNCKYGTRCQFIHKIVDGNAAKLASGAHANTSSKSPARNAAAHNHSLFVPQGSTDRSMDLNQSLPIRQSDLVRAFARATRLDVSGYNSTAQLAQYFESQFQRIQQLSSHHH

[19] = molecular target: G-protein coupled receptor 55 (Homo sapiens, UniProt Q9Y2T6); test: GPR55 antagonists blocking LPI-driven arrestin recruitment, primary screen, imaging, U2OS, beta-arrestin-GFP, LPI agonist (AID 2013); assay type: functional;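 further: antagonist potency measured as reduced agonist-driven arrestin aggregation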
Sequence of G-protein coupled receptor 55 (Q9Y2T6 whole entry): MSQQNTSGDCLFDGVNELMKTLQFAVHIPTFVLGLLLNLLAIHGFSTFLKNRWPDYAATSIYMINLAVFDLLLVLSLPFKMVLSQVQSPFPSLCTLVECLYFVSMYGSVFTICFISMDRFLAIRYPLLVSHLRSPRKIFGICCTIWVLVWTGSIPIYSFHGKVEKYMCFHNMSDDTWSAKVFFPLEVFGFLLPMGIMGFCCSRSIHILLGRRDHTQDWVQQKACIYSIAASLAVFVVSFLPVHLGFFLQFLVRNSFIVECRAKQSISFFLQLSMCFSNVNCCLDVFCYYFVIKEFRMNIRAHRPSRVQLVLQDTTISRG

[20] = Luminescence-based counterscreen assay for KLF5 inhibitors: dose response cell-based high throughput screening assay to identify cytotoxic compounds using the IEC-6 intestinal epithelial cell line. [Related pubchem assays: 1700 (Primary screen.), 1834 (Confirmation screen.), 1858 (Summary AID.), 1905 (Counterscreen.)]; assay type: functional
INS1 = test: beta cell apoptosis inhibitors, cytokine rescue, dose response, luminescence, retest (AID 449756); assay type: functional, cell-based; details: Rattus norvegicus;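 further: cell death triggered by IL-1 beta plus TNF-alpha plus IFN-gamma mixture; protective hits raise ATP signal compared with cytokine alone wells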
cells [21] = assay type: functional, cell-based
cells [22] = assay type: functional, cell-based; remark: listed apart in the source
[23] = system: Streptococcus sp. 'group A'; test: growth inhibition of control SK(-) GAS strain, dose response, counter-screen for streptokinase expression inhibitor project, luminescence, kanamycin, BacTiterGlo, confirmation (AID 1900); assay type: functional, organism-based
[24] = C. albicans growth with fluconazole, confirmation, fluorescence, retest (AID 2467); assay type: functional, cell-based
Streptococcus = test: Group A Streptococcus viability loss, dose response, counter-screen for streptokinase expression inhibitor project, luminescence, BacTiterGlo (AID 1915); assay type: functional, organism-based;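 further: potency for reduction of bacterial viability or growth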
[25] = NIH-3T3 fibroblast cytotoxicity, dose response, cytotoxicity control, cell-based, fluorescence, Alamar Blue, secondary assay (AID 2327); assay type: functional;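 further: NIH-3T3 mouse fibroblasts cultured with fluconazole at 8 µg/mL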
Protein Wnt-3a = Protein Wnt-3a (Mus musculus, UniProt P27467); test: Wnt3a-driven reporter signaling inhibition, dose response, selectivity assay for Gli-SUFU antagonist project, Wnt-LIGHT cells, luminescence (AID 651570); assay type: functional; details: read-out: IC50_Mean;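 further: Wnt-LIGHT reporter cells stimulated with conditioned medium from Wnt3a-producing cells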
Sequence of Protein Wnt-3a (P27467 whole entry): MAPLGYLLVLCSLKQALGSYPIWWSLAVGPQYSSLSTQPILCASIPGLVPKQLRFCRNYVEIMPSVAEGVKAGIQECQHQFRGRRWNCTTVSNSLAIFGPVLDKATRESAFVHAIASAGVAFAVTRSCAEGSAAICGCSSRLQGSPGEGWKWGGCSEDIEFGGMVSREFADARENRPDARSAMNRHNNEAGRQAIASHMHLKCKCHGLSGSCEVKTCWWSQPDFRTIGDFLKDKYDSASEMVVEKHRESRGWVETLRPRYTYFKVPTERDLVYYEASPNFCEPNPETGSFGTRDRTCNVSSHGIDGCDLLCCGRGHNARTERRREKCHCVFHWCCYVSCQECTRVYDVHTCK

For `O=C(CNC(=O)c1cccs1)N=Nc1c(O)[nH]c2ccc([N+](=O)[O-])cc12`, the CC50 [1] was > 50 µM (active) and the IC50 (cells [2]) was 14.6 µM (active).
For `Cc1ccc(-n2nc3c(c2NC(=O)c2cccs2)CSC3)cc1`, the EC50 [3] was 0.558 µM (active), the IC50 [4] was 6.35 µM (active) and the IC50 [5] was 16.2 µM (active).
With `COC(=O)c1[nH]c2ccccc2c1NC(=O)CN1CCCCCC1` the IC50 [6] was 3.51 µM (active) and the IC50 [7] was 2.63 µM (active).
With `COc1ccc(CSc2nnc(NC(C)=O)s2)cc1[N+](=O)[O-]` the CC50 (Vero [8]) was > 40 µM (active).
For `COc1ccccc1N1CCN(S(=O)(=O)c2cc(C(F)(F)F)cc(C(F)(F)F)c2)CC1`, the IC50 (HEK293) was > 67.5 µM (inactive) and the IC50 [9] was > 67.5 µM (inactive).
With `O=C(Nc1nc2ccc(S(=O)(=O)N3CCCC3)cc2s1)C1CCCCC1` the IC50 [10] was > 80 µM (inactive).
With `Cc1ccc(-n2c(=O)c(C#N)cc3c(=O)n4cccc(C)c4nc32)cc1` the IC50 (Estrogen receptor beta [11]) was 25.4 µM (active), the IC50 (Estrogen receptor beta [12]) was < 77 µM (not active) and the IC50 (Estrogen receptor) was 30.9 µM (not active).
In the case of `CCOCCCNc1[nH]cnc2c3ccccc3nc1-2`, the IC50 [6] was 2.76 µM (active) and the IC50 [7] was 2.31 µM (active).
In the case of `CC1=Nc2cc(C(=O)N3CCCC3)ccc2Sc2c(C)ccc(C)c21`, the IC50 (Vero [13]) was 8.21 µM (active), the CC50 [1] was 7.28 µM (active) and the IC50 (cells [2]) was 3.34 µM (active). The CC50 (Vero [14]) was 16.9 µM (active).
With `O=C(CN1C(=O)NC2(CCCC2)C1=O)NCC1CCCO1` (stereo unspecified) the IC50 (HEK293) was > 67.5 µM (inactive) and the IC50 [9] was > 67.5 µM (inactive).
With `CN1CCN(S(=O)(=O)c2cccc(C(=O)Nc3sc4c(c3-c3nc5ccccc5[nH]3)CCCC4)c2)CC1` the CC50 (Vero [8]) was > 40 µM (active), the EC50 [15] was 1.67 µM (active) and the EC50 [16] was > 60 µM (not active).
For `COc1ccccc1NC(=O)N1CCc2[nH]c3ccc(F)cc3c2C1`, the EC50 [3] was 5.47 µM (active) and the CC50 [1] was > 50 µM (active).
For `CCn1c(SCc2ccc(C)cc2)nnc1C1CCN(S(=O)(=O)c2ccc(OC)cc2)CC1`, the EC50 [17] was > 300 µM (not active), the EC50 [3] was 6.41 µM (active) and the EC50 [18] was > 300 µM (not active).
With `Brc1ccc2c(c1)C(C1=NCCN1)c1ccccc1CS2` (stereo unspecified) the IC50 [10] was > 80 µM (inactive).
For `Cc1nn(Cc2ccccc2Cl)c(C)c1C(=O)Nc1nnc(C2CC2)s1`, the IC50 (Vero [13]) was 5.21 µM (active), the CC50 [1] was 7.49 µM (active) and the IC50 (cells [2]) was 3.75 µM (active). For the same compound, the CC50 (Vero [14]) was > 25 µM (active).
In the case of `COc1ccc(OC)c(N2C(=O)NC(=O)/C(=C/c3c(C)[nH]c4ccccc34)C2=O)c1`, the IC50 [19] was < 0.5 µM (active).
For `COc1ccc(N2C(=O)NC(=O)/C(=C\c3cn(CC(=O)N4CCOCC4)c4ccccc34)C2=O)c(OC)c1`, the EC50 [17] was > 300 µM (not active), the EC50 [18] was > 300 µM (not active) and the IC50 [19] was 1.59 µM (active).
With `O=C(CSc1nnc(Cc2cc(O)nc(O)n2)n1-c1ccc(F)cc1)N1CCCCC1` the IC50 (HEK293) was > 67.6 µM (inactive) and the IC50 [9] was > 67.6 µM (inactive).
For `COc1ccc(OC)c2[nH]c(C(=O)N/N=C/c3ccccc3O)cc12`, the IC50 [20] was 12.5 µM (not active), the AC50 (INS1) was 2.12 µM (active) and the EC50 (cells [21]) was 12.2 µM (active). For the same compound, the EC50 (cells [22]) was > 350 µM (not active), the EC50 [23] was 1.96 µM (active) and the EC50 [24] was 1.86 µM (active). The EC50 (Streptococcus) was 2.37 µM (active) and the EC50 [25] was > 160 µM (inactive).
With `CC1CCN(Cc2c(C(=O)N/N=C/c3ccccc3O)nnn2-c2nonc2N)CC1` the IC50 [20] was 4.81 µM (active), the AC50 (INS1) was 0.9 µM (active) and the EC50 (cells [21]) was 29.5 µM (active). For the same compound, the EC50 (cells [22]) was > 350 µM (not active) and the IC50 (Protein Wnt-3a) was 20.8 µM (inactive).
For `Cc1[nH]n(C2=NCCS2)c(=O)c1N=Nc1cccc(C(F)(F)F)c1`, the AC50 (INS1) was 2.5 µM (active), the IC50 [6] was 1.75 µM (active) and the EC50 [15] was 0.669 µM (active). The IC50 [7] was 2.2 µM (active) and the EC50 [16] was > 60 µM (not active).
With `Cn1c(-c2ccccc2)c(/C=N/NC(=O)c2ccc(O)cc2)c2ccccc21` the IC50 (HEK293) was > 67.5 µM (inactive) and the IC50 [9] was > 67.5 µM (inactive).
